Experimental findings from US4637901A, “N-(alpha-haloacyl)-N-hydrocarbyl carbamoyl halides” (priority 1985, dated 1987) are described below.

Converted amounts (≈) assume the structure as drawn.

Holding throughout (assay type): in vivo
Assay [1] deals with Mexican Bean Beetle (Epilachna varivestis, Muls.) larvae. Briefly: Mexican Bean Beetle Leaf Spray Test. The note with it: 120 h, five days, read-out: Biological activity (LD50 in ppm), Mexican Bean Beetle. The protocol: (§1) Suspensions of the test compounds were prepared by dissolving one gram of compound in 50 milliliters of acetone in which had been dissolved 0.1 gram (10 percent of the weight of compound) of an alkylphenoxy polyethoxyethanol surfactant, as an emulsifying or dispersing agent. The resulting solution was mixed into 150 milliliters of water to give roughly 200 milliliters of a suspension containing the compound in finely divided form. The thus-prepared stock suspension contained 0.5 percent by weight of compound.
(§2) Certain of the test compounds were also prepared by dissolving 375 mg of compound in 7.5 ml of dimethylformamide. Fifteen ml of acetone containing 37.5 mg (10 percent of the weight of test compound) of an alkylphenoxy polyethoxyethanol surfactant, as a wetting/emulsifying/dispersing agent was added to the dimethylformamide solution. Fifty-two and a half ml of water was mixed into the dimethylformamide-acetone mixture to give roughly 75 ml of a suspension containing the compound in solution or in finely divided form. The thus prepared stock suspension contained 0.5 percent by weight of compound. The test concentrations in parts per million by weight employed in the tests described hereinbelow were obtained by appropriate dilutions of the stock suspension with water. The test procedures were as follows:
Mexican Bean Beetle Leaf Spray Test
Fourth instar larvae of the Mexican bean beetle (Epilachna varivestis, Muls.), reared on Tendergreen bean plants at a temperature of 80°±5° F. and 50±5 percent relative humidity, were the test insects.
For certain of the tests second instar larvae (weighing about 6 mg) of the Mexican bean beetle (Epilachna varvestis, Muls), reared on Seiva Pole lima bean plants at a temperature of 80°±5° F. and […] relative humidity, were the test insects.
The test compounds were formulated by diluting the stock suspension with water to give a suspension containing 500 parts of test compound per million parts of final formulation. […]

Assay [2] concerns certain mites and insects including the Bean Aphid, Southern Army Worm, Mexican Bean Beetle and house fly. The assay is described as follows: Pesticidal activity against certain mites and insects (overall comparison). The note with it: for activity in words (comparison as set forth in Table I): prior art derivatives compared with derivatives of the invention. The protocol: A comparision of an oxime derivative of the novel compounds of this invention was evaluated to determine its pesticidal activity against certain mites and insects including the Bean Aphid, Southern Army Worm, Mexican Bean Beetle and house fly. The oxime derivative was also compared with typical derivative of this oxime as disclosed in British Pat. No. 1,226,450.
as §1
as §2, with “water.” for “water. The test procedures were as follows:”

For assay [3], the system named is Bean Aphid (Aphis fabae Scop.). The assay is described as follows: Bean Aphid Foliage Spray Test. The note with it: foliar, potted dwarf nasturtium plants, 24 hour holding period, read-out: Biological activity (LD50 in ppm), Bean Aphid. How it is done:
as §1, §2
Bean Aphid Foliage Spray Test
Adults and nymphal stages of the bean aphid (Aphis fabae Scop.) reared on potted dwarf nasturtrium plants at 68°-70° F. and 50±5 percent relative humidity, constituted the test insects. For testing purposes, the number of aphids per pot was standardized to 100-150 by trimming plants containing excess aphids. […]
The potted plants (one pot per compound tested) infested with 100-150 aphids were placed on a revolving turntable and sprayed with 100-110 milliliters of test compound formulation by use of a DeVilbiss spray gun set at 40 psig air pressure. […] Percent mortality was recorded for various concentration levels.

Assay [4] relates to House Fly (Musca domestica, L.). The assay is described as follows: Fly Bait Test. The settings on record: 24 h, adult flies, sugar bait, twenty-four hours, read-out: Biological activity (LD50 in ppm), House Fly. How it is done:
as §1, §2
Four to six day old adult house flies (Musca domestica, L.), reared according to the specifications of the Chemical Specialties Manufacturing Association (Blue Book, McNair-Dorland Co., N.Y. 1954; pages 243-244, 261) under controlled conditions of 80°±5° F. and 50±5 percent relative humidity, were the test insects. The flies were immobilized by anesthetizing with carbon dioxide and twenty-five immobilized individuals, males and females, were transferred to a cage consisting of a standard food strainer about five inches in diameter which was inverted over a wrapping-paper-covered surface. […]

Assay [5] has as its system Southern Armyworm (Spodoptera eridania, (Cram.)) larvae. Briefly: Southern Armyworm Leaf Spray Bait Test. The note with it: 120 h, five days, read-out: Biological activity (LD50 in ppm), Southern Army Worm. The protocol: as §1, §2
Southern Armyworm Leaf Spray Bait Test
Larvae of the southern armyworm (Spodoptera eridania, (Cram.)), reared on Tendergreen bean plants at a temperature of 80°±5° F. and a relative humidity of 50±5 percent, constituted the test insects.
The test compounds were formulated by diluting the stock suspension with water to give a suspension containing 500 parts of test compound per million parts of final formulation. Potted Tendergreen bean plants of standard height and age were placed on a revolving turntable and sprayed with 100-110 milliliters of test compound formulation by use of a DeVilbiss spray gun set at 40 psig air pressure. This application, which lasted 25 seconds, was sufficient to wet plants to run-off. […] Percent mortality was recorded for various concentration levels.

`CCC(=O)N(C)C(=O)ON=C(C)SC` [(XIVb)]: the LC50 in assay [1] stood at 200 µg/mL (≈ 916 µM); in assay [3], 500 µg/mL (≈ 2290 µM); in assay [4], 500 µg/mL (≈ 2290 µM); in assay [5], 60 µg/mL (≈ 275 µM). Moreover, in assay [2], the “activity in words (comparison as set forth in Table I)” value is “less active or inactive”.
Turning to `COC(=O)Nc1ccc(OC(=O)N(C)C(=O)C[N+](C)(C)C)cc1C(C)C`, in assay [2] (trimethyl amine salt of the N-haloacylcarbamate), the “pesticidal properties (in words)” value is given as “excellent pesticidal properties”.
For `CSC(C)=NOC(=O)N(C)C(=O)CCCCl` [(XIVa)], the LC50 in assay [1] was found to be 310 µg/mL (≈ 1160 µM); in assay [3], 37 µg/mL (≈ 139 µM); in assay [4], 25 µg/mL (≈ 93.7 µM); in assay [5] it was 310 µg/mL (≈ 1160 µM). In addition, the “activity in words (comparison as set forth in Table I)” value in assay [2] is “less active or inactive”.
Regarding `CSC(C)=NOC(=O)N(C)C(=O)CCl` [(XII)], the LC50 in assay [1] worked out at 35 µg/mL (≈ 147 µM); in assay [3], 16 µg/mL (≈ 67 µM); in assay [4] it was 6 µg/mL (≈ 25.1 µM); in assay [5] it was 20 µg/mL (≈ 83.8 µM).
